In patent US6642251B1, “Geometrically restricted 2-indolinone derivatives as modulators of protein kinase activity” (Sugen, Inc., priority 1998, dated 2003):

Tests used:
[1] = target: T1, IGF-1 receptor (Homo sapiens, UniProt P08069); test: Cellular IGF-1 receptor assay (cell IGF); type: cell-based; conditions: for IC50: 50% inhibition of target PTK activity; on cell IGF, outcome of primary assay: key: DNH = did not hit in primary assay
T1 construct: expressed in transfected cells; host or cells: NIH3T3/IGF-1R
Protocol: The following protocol may be used to measure phosphotyrosine level on IGF-1 receptor, which indicates IGF-1 receptor tyrosine kinase activity.
a. The cell line used in this assay is 3T3/IGF-1R, a cell line genetically engineered to overexpresses IGF-1 receptor.
2. […] Incubate for 1 day then replace medium to serum-free medium (90/μl) and incubate in 5% CO2 and 37° C. overnight.
2. Remove the coating solution, and replace with 100 μl Blocking Buffer, and shake for 30 minutes. Remove the blocking buffer and wash the plate just before adding lysate.
1. The drugs are tested under serum-free condition.
2. Dilute drug stock (in 100% DMSO) 1:10 with DMEM in 96-well poly-propylene plate, and transfer 10 μl/well of this solution to the cells to achieve final drug dilution 1:100, and final DMSO concentration of 1.0%. Incubate the cells in 5% CO2 at 37° C. for 2 hours.
3. Prepare fresh cell lysis buffer (HNTG*)
4. After drug incubation for two hours, transfer 10 μl/well of 200 nM IGF-1 Ligand in PBS to the cells (Final Conc. is 20 nM), and incubate at 5% CO2 at 37° C. for 10 minutes.
5. Remove media and add 100 μl/well HNTG* and shake for 10 minutes. Look at cells under microscope to see if they are adequately lysed.
6. Use a 12-channel pipette to scrape the cells from the plate, and homogenize the lysate by repeated aspiration and dispensing. Transfer all the lysate to the antibody coated ELISA plate, and shake for 1 hour.
7. Remove the lysate, wash the plate, transfer anti-pTyr (1:3,000 with TBST) 100 μl/well, and shake for 30 minutes.
8. Remove anti-pTyr, wash the plate, transfer TAGO (1:3,000 with TBST) 100 μl/well, and shake for 30 minutes.
9. Remove detection antibody, wash the plate, and transfer fresh ABTS/H2O2 (1.2 μl H2O2 to 10 ml ABTS) 100 μl/well to the plate to start color development.
10. Measure OD at 410 nm with a reference wavelength of 630 nm in Dynatec MR5000.

[2] = target: EGFR (Homo sapiens, UniProt P00533); test: Biochemical EGFR assay (bio EGFR), ELISA; parameters: A431 cell lysate (Screening Lab, SUGEN, Inc.); endogenous in cells; host or cells: A431; conditions: 50% inhibition of target PTK activity; read-out: bio EGFR (Page 5) IC50
Protocol: This assay measures the in vitro kinase activity of EGFR using ELISA.
6. A431 cell lysate (Screening Lab, SUGEN, Inc.)
1. Coat Corning 96 well ELISA plates with 0.5 μg […] in
100 μl PBS per well, store overnight at 4° C.
2. Remove unbound SUMO1 from wells by inverting plate to remove liquid. Wash 1× with dH2O. Pat the plate on a paper towel to remove excess liquid.
3. Add 150 μl of Blocking Buffer to each well. Incubate for 30 min. at room temperature with shaking.
4. Wash plate 3× with deionized water, then once with TBST. Pat plate on a paper towel to remove excess liquid and bubbles.
5. Dilute lysate in PBS (7 μg lysate/100 μl PBS).
6. Add 100 μl of diluted lysate to each well. Shake at room temperature for 60 min.
7. Wash plates as described in 4, above.
8. Add 120 μl TBS to ELISA plate containing captured EGFR.
9. Dilute test compound 1:10 in TBS in 96-well polypropylene plates (ie. 10 μl compound+90 μl TBS).
10. Add 13.5 μl diluted test compound to ELISA plate.
11. Incubate for 30 minutes while shaking at room temperature.
13. After 5 minutes, stop reaction by adding 16.5 μl of 200 mM EDTA (pH 8.0) to each well, shaking continuously. After the EDTA has been added, shake for 1 min.
14. Wash 4× with deionized water, twice with TBST.
15. Add 100 μl anti-phosphotyrosine (1:3000 dilution.in TBST) per well. Incubate 30-45 min. at room temperature, with shaking.
16. Wash as described in 4, above.
17. Add 100 μl Biosource Goat anti-rabbit IgG peroxidase conjugate (1:2000 dilution in TBST) to each well. Incubate 30 min. at room temperature, with shaking.
18. Wash as described in 4, above.
19. Add 100 μl of ABTS/H2O2 solution to each well.
20. Incubate 5 to 10 minutes with shaking. Remove any bubbles.
21. If necessary stop reaction with the addition of 100 μl 0.2 M HCl per well.
22. Read assay on Dynatech MR7000 ELISA reader. Test Filter: 410 nM Reference Filter: 630 nM

[3] = target: T2, src protein kinase (Gallus gallus, UniProt P00523); test: Biochemical src assay (bio SRC); conditions: for IC50: 50% inhibition of target PTK activity; on bio SRC, outcome of primary assay: key: DNH = did not hit in primary assay
T2 construct: made in house; host or cells: Schizosaccharomyces pombe strain SP200
Protocol: This assay is used to determine src protein kinase activity measuring phosphorylation of a biotinylated peptide as the readout.
a. Yeast transformed with src (Sugen, Inc., Redwood City, Calif.).
1. Coat ELISA plate with 0.5 μg/well anti-src mab in 100 μl of pH 9.6 sodium carbonate buffer; hold at 4° C. overnight.
2. Wash wells once with PBS.
3. Block plate with 0.15 ml 5% milk in PBS for 30 min. at room temperature.
4. Wash plate 5× with PBS.
5. Add 10 μg/well of src transformed yeast lysates diluted in Lysis Buffer (0.1 ml total volume per well). (Amount of lysate may vary between batches.) Shake plate for 20 minutes at room temperature.
1. 4G10 plate: coat 0.5 μg/well 4G10 in 100 μl PBS overnight at 4° C. and block with 150 μl of 5% milk in PBS for 30 minutes at room temperature.
1. Remove unbound proteins.from plates and wash plates 5× with PBS.
2. Add 0.08 ml Kinase Reaction Mixture per well (containing 10 μl of 10×-Kinase Buffer and 10 μM (final concentration) biotin-EEEYEEYEEEYEEEYEEEY per well diluted in water.
3. Add 10 μl of compound diluted in water containing 10% DMSO and pre-incubate for 15 minutes at room temperature.
4. Start kinase reaction by adding 10 μl/well of 0.05 mM ATP in water (5 μM ATP final).
5. Shake ELISA plate for 15 min. at room temperature.
6. Stop kinase reaction by adding 10 μl of 0.5 M EDTA per well.
7. Transfer 90 μl supernatant to a blocked 4G10 coated ELISA plate.
8. Incubate for 30 min. while shaking at room temperature.
9. Wash plate 5× with TBST.
10. Incubate with Vectastain ELITE ABC reagent (100 μl/well) for 30 min. at room temperature.
11. Wash the wells 5× with TBST.
12. Develop with Turbo TMB.

Sequence of EGFR (P00533 25-1210): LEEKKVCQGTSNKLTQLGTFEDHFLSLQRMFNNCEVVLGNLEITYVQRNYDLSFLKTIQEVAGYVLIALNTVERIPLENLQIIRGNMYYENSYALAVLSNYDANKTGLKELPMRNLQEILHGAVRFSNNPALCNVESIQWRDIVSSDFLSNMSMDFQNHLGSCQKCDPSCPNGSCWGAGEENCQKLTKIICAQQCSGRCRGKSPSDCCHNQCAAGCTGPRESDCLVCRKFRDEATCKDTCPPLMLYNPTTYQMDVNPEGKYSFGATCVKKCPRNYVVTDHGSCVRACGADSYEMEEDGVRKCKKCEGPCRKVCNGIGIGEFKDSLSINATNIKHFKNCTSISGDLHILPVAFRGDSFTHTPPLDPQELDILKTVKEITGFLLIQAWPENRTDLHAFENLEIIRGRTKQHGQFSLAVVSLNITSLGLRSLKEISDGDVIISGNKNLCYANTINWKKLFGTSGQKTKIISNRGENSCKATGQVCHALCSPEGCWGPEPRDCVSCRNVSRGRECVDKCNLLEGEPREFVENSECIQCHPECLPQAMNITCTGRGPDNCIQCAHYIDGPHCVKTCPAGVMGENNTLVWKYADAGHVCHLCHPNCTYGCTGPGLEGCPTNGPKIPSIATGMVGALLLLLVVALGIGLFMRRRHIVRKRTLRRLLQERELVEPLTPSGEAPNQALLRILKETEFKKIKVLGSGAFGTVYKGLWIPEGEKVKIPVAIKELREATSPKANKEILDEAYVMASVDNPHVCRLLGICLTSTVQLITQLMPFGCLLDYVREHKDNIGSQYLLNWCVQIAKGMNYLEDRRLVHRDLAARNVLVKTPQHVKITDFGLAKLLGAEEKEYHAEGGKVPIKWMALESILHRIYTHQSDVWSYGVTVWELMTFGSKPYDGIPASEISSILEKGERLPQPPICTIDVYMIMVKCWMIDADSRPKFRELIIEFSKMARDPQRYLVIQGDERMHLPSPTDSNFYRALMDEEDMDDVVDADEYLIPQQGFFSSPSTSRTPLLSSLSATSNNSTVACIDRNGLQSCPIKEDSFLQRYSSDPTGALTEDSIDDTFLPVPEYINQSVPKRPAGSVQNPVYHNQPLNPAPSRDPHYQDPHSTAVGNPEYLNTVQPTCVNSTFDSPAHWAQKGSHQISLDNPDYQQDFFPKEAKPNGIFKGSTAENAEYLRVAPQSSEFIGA
T1 sequence (P08069 31-1367): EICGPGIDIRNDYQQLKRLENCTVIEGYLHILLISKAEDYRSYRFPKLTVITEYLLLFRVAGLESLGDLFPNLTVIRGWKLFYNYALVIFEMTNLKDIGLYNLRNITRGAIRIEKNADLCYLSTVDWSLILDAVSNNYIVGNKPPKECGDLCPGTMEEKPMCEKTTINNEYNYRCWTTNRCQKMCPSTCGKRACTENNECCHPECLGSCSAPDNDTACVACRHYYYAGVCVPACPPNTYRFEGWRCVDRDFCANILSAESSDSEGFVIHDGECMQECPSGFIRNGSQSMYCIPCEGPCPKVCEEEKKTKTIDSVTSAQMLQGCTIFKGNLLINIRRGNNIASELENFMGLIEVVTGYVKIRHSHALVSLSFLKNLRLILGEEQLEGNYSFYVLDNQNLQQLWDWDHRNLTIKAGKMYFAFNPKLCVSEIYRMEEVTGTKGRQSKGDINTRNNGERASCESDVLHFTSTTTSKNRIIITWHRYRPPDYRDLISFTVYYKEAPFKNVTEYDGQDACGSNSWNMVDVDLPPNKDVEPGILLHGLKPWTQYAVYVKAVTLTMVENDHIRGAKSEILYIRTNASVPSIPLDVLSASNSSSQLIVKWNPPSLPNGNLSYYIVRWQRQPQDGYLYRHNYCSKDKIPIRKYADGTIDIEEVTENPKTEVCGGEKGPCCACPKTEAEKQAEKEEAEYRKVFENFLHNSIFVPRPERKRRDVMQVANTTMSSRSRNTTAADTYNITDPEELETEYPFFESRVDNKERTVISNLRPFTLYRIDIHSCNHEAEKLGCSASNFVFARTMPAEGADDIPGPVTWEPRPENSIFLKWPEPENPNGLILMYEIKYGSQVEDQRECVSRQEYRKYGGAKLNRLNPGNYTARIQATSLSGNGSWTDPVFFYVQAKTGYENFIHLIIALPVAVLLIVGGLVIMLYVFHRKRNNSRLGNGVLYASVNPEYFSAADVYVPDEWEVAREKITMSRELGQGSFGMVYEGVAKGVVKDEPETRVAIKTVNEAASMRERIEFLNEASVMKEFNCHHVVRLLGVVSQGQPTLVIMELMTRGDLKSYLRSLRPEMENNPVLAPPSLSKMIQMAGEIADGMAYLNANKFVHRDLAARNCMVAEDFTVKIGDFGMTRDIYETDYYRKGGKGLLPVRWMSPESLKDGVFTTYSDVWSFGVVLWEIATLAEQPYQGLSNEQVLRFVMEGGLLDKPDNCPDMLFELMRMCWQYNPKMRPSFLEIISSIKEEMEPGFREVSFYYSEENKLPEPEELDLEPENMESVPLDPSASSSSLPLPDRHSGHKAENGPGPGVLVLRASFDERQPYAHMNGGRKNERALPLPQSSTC

SMILES	cell IGF, outcome of primary assay [1]	IC50 [2] [µM]	IC50 [1] [µM]	IC50 [3] [µM]	bio SRC, outcome of primary assay [3]
CN(C)c1ccc2c(c1)CC/C2=C1/C(=O)Nc2ccccc21 [Compound 5, 3-(5-Dimethylaminoindan-1-ylidene)-1,3-dihydroindol-2-one]	DNH	> 100		> 100	
COc1ccc2c(c1)CC/C2=C1/C(=O)Nc2ccccc21 [Compound 3, 3-(5-Methoxyindan-1-ylidene)-1,3-dihydroindol-2-one]	DNH	> 100			DNH
COc1cc2c(cc1OC)/C(=C1\C(=O)Nc3ccccc31)CC2 [Compound 12, 3-(5,6-Dimethoxyindan-1-ylidene)-1,3-dihydroindol-2-one]		> 25	> 25	> 25	
Cc1cccc2c1CC/C2=C1/C(=O)Nc2ccccc21 [Compound 2, 3-(4-Methylindan-1-ylidene)-1,3-dihydroindol-2-one]	DNH	> 100			DNH
CC1C/C(=C2/C(=O)Nc3ccccc32)c2ccccc21 (centres unmarked) [Compound 1, 3-(3-methylindan-1-ylidene)-1,3-dihydroindol-2-one]	DNH	> 100			DNH

More lines, now with the values ahead:

cell IGF, outcome of primary assay [1]	IC50 [2] [µM]	IC50 [1] [µM]	IC50 [3] [µM]	bio SRC, outcome of primary assay [3]	SMILES
DNH	> 100				O=C1Nc2ccccc2/C1=C1\CCc2cc(N3CCCCC3)ccc21 [Compound 8, 3-(5-Piperidin-1-yl-indan-1-ylidene)-1,3-dihydroindol-2-one]
	> 100	> 100			COc1ccc2c(c1)C(CC(=O)O)C/C2=C1/C(=O)Nc2ccccc21 (centres unmarked) [Compound 11, [6-Methoxy-3-(2-oxo-1,2-dihydroindol-3-ylidene)-indan-1-yl]acetic Acid]
	> 100	> 100			COc1ccc2c(c1)C(CC(=O)[O-])CC2=C1C(=O)Nc2ccccc21.[Na+] (centres unmarked) [Compound 13, [6-Methoxy-3-(2-oxo-1,2-dihydroindol-3-ylidene)-indan-1-yl]acetic Acid Sodium Salt]
DNH	> 100		> 100		O=C1Nc2ccccc2/C1=C1\CCc2cc(Cl)ccc21 [Compound 7, 3-(5-Chloroindan-1-ylidene)-1,3-dihydroindol-2-one]
	> 100	> 100	> 100		O=C1Nc2ccccc2/C1=C1\CCc2ccccc21 [Compound 10, 3-Indan-1-ylidene-1,3-dihydroindol-2-one]
DNH	> 100				O=C1Nc2ccccc2/C1=C1\CCc2cc(Br)ccc21 [Compound 9, 3-(5-Bromoindan-1-ylidene)-1,3-dihydroindol-2-one]
